The assay addresses T1, Phosphoglycerate kinase 1 (Homo sapiens, UniProt P00558).
T1 sequence (P00558 whole entry): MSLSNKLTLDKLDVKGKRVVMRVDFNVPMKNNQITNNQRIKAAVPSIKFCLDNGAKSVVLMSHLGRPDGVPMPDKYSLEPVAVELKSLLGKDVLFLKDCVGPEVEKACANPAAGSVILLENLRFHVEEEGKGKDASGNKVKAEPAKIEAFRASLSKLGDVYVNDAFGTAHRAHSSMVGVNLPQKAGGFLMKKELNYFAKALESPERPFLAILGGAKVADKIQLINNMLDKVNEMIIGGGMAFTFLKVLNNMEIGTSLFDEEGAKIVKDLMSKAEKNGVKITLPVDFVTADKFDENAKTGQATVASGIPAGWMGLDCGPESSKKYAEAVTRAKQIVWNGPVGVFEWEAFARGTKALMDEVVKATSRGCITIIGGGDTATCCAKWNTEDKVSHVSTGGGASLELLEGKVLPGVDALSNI
Description: Inhibition of PGK1 (unknown origin) pre-incubated with enzyme before 3-phosphoglycerate substrate addition and incubated for 30 mins in presence of NADH and ATP by glyceraldehyde P-dehydrogenase coupling based NADH fluorescence assay.

The results in this text go back to ChEMBL document CHEMBL3727373, “Phosphoglycerate kinase inhibitors” (2012).

For the compound `CN1CCN(CCNc2nc3cc(Cl)c(C#N)cc3nc2-c2ccccn2)CC1`, the IC50 turned out to be 346 nM.

As to `CCNc1nc2cc(Cl)c(OC)cc2nc1NCC`, the concentration for half-maximal inhibition (IC50) was 9 nM. As to `CCNc1nc2cc(Cl)c(C#CCNC(N)=O)cc2nc1NCC`, the IC50 came to 393 nM.

With `CCNc1nc2cc(OC)c(Cl)cc2nc1-c1cccc2ncccc12`, the IC50 stood at 1400 nM. Under `CCNc1nc2cc(Cl)c(C#N)cc2nc1NCC` stands 38 nM; under `COc1cc2nc(NCCCN3CCCC3)c(-c3ccncc3)nc2cc1OC`, 10000 nM; under `CCNc1nc2cc(OC)c(Cl)cc2nc1-c1ccc(C(C)=O)s1`, 1100 nM. With `CCNc1nc2cc(Cl)c(C#CCCO)cc2nc1NCC`, the IC50 is 5 nM. Consider `CCNc1nc2cc(Cl)c(C#Cc3cccc(O)c3)cc2nc1NCC`, for which the IC50 amounted to 5700 nM. With `CCNc1nc2cc(OC)c(OC)cc2nc1NC`, the IC50 worked out at 2530 nM. As for `CCNc1nc2cc(OC)c(Cl)cc2nc1NCCCN1CCN(C)CC1`, the half-maximal inhibitory concentration (IC50) turned out to be 195 nM. On to `CCNc1nc2cc(C#CCCO)c(Cl)cc2nc1Cl`, for which the half-inhibitory concentration (IC50) came to 41 nM. Regarding `CCNc1nc2cc(Cl)c(CC(=O)CCC(=O)O)cc2nc1NCC`, the IC50 was 5830 nM. With `CCNc1nc2cc(OC)c(Cl)cc2nc1-c1cn[nH]c1`, the IC50 came to 75 nM. As for `COc1cc2nc(Br)c(NCCN3CCN(C)CC3)nc2cc1OC`, the IC50 is 16400 nM. Take `CCNc1nc2cc(OC)c(Cl)cc2nc1-c1cccc(C(=O)NCc2ccccc2)c1`: the IC50 turned out to be 550 nM.

As to `CCNc1nc2cc(OC)c(Cl)cc2nc1-c1ccc(N2CCN(C(=O)OC(C)(C)C)CC2)nc1`, the IC50 was found to be 1700 nM. Regarding `CCNc1nc2cc(OC)c(Cl)cc2nc1-c1cccc(Cl)c1`, the IC50 worked out at 2100 nM. Consider `CCNc1nc2cc(Cl)c(OC(F)(F)F)cc2nc1NCC`, for which the IC50 was 1170 nM.

In the case of `CCNc1nc2cc(Cl)c(C#CCCCC#N)cc2nc1NCC`, the IC50 was determined as 570 nM. Under `CCNc1nc2cc(Cl)c(C#CCCN)cc2nc1NCC` stands 1050 nM; under `CCNc1nc2cc(Cl)c(C#CC3CC3)cc2nc1NCC`, 19 nM. Under `CCNc1nc2cc(Cl)c(NC(=O)CCO)cc2nc1NCC` stands 1090 nM; under `CCCCC#Cc1cc2nc(NCC)c(NCC)nc2cc1Cl`, 884 nM; under `CCNc1nc2cc(OC)c(OC)cc2nc1NCCc1ccccn1`, 840 nM. For `CCNc1nc2cc(OC)c(OC)cc2nc1-c1ccncc1`, the IC50 was 6660 nM. For the compound `CCC#Cc1cc2nc(NCC)c(NCC)nc2cc1Cl`, the half-inhibitory concentration (IC50) is 270 nM. Under `CCNc1nc2cc(Cl)c(C#CC(C)(C)O)cc2nc1NCC` stands 2690 nM. Consider `CCNc1nc2cc(OC)c(OC)cc2nc1NCc1ccncc1`, for which the IC50 came to 2010 nM.

With `CCNc1nc2cc(OC)c(Cl)cc2nc1-c1ccc2occc(=O)c2c1`, the IC50 is 1600 nM.

As to `CCNc1nc2cc(OC)c(Cl)cc2nc1-c1cnn(C)c1`, the IC50 stood at 66 nM. For the compound `CCCC(O)C#Cc1cc2nc(NCC)c(NCC)nc2cc1Cl` (stereo not given), the IC50 came out at 2000 nM. Consider `CNc1nc2cc(OC)c(OC)cc2nc1Cl`, for which the IC50 was 24000 nM. For the compound `CCNc1nc2cc(OC)c(Cl)cc2nc1-c1ccc2c(c1)OCO2`, the IC50 was determined as 2300 nM. As for `CCNc1nc2cc(OC)c(OC)cc2nc1NCCCN1CCCC1=O`, the IC50 was 1810 nM. Under `CCNc1nc2cc(OC)c(Cl)cc2nc1Cl` stands 1180 nM; under `CCNc1nc2cc(OC)c(Cl)cc2nc1-c1cnc2ccccc2c1`, 4600 nM; under `CCNc1nc2cc(O)c(Cl)cc2nc1NCC`, 366 nM. Under `CCNc1nc2cc(OC)c(Cl)cc2nc1-c1cccs1` stands 190 nM; under `CCNc1nc2cc(OC)c(Cl)cc2nc1-c1cc2ccccc2o1`, 1400 nM. Regarding `CCNc1nc2cc(OC)c(Cl)cc2nc1-c1ccccc1-c1ccccc1`, the IC50 is 2000 nM.

For `CCNc1nc2cc(OC)c(OC)cc2nc1Cl`, the IC50 came out at 6320 nM. On to `CCNc1nc2cc(C#CCCO)c(Cl)cc2nc1NCCCN1CCN(C)CC1`, for which the IC50 was found to be 16 nM. On to `CCNc1nc2cc(OC)c(Cl)cc2nc1-c1cccc(C(=O)NCc2ccco2)c1`, for which the IC50 turned out to be 210 nM. In the case of `CCNc1nc2cc(OC)c(Cl)cc2nc1NCCCN1CCCC1`, the IC50 was determined as 252 nM. Under `CCNc1nc2cc(Cl)c(C#CCCCO)cc2nc1NCC` stands 42 nM; under `CCNc1nc2cc(OC)c(Cl)cc2nc1-c1cccc2[nH]ccc12`, 4400 nM. Take `CCNc1nc2cc(OC)c(Cl)cc2nc1-c1cccc2ccccc12`: the 50% inhibitory concentration (IC50) amounted to 10000 nM. In the case of `CCNc1nc2cc(OC)c(OC)cc2nc1NCCCN1CCCC1`, the IC50 is 4360 nM. Under `CCNc1nc2cc(Cl)c(-c3noc(CCO)n3)cc2nc1NCC` stands 596 nM; under `CCNc1nc2cc(OC)c(Cl)cc2nc1-c1cnn(Cc2ccccc2)c1`, 91 nM. With `CCNc1nc2cc(C#CCCO)c(Cl)cc2nc1NCCN1CCN(C)CC1`, the IC50 was determined as 8 nM. Consider `CCNc1nc2cc(Cl)c(C#Cc3ccoc3)cc2nc1NCC`, for which the IC50 was 1030 nM. The value for `CCNc1nc2cc(OC)c(Cl)cc2nc1-c1cc2ccccc2s1` was 78 nM; that for `CCNc1nc2cc(Cl)c([N+](=O)[O-])cc2nc1NCC` was 98 nM.

On to `CCNc1nc2cc(Cl)c(C#N)cc2nc1NCc1cccnc1`, for which the IC50 was determined as 15 nM.

In the case of `CCNc1nc2cc(OC)c(Cl)cc2nc1-c1cccc(C(N)=O)c1`, the half-inhibitory concentration (IC50) was 240 nM. Under `CCNc1nc2cc(OC)c(OC)cc2nc1NCCc1ccncc1` stands 741 nM; under `CCNc1nc2cc(Cl)c(N3CC(CCO)C3)cc2nc1NCC`, 10000 nM; under `CCNc1nc2cc(Cl)c(CC(=O)CCC(=O)OC)cc2nc1NCC`, 9000 nM.

Regarding `CCNc1nc2cc(Cl)c(C#CCCCCO)cc2nc1NCC`, the IC50 was 385 nM. `CCNc1nc2cc(OC)c(Cl)cc2nc1-c1csc2ccccc12`: the IC50 amounted to 2000 nM. `CCNc1nc2cc(Cl)c(C#CC(C)(O)CC)cc2nc1NCC` (stereo not given): the IC50 came out at 4810 nM. On to `CCNc1nc2cc(OC)c(Cl)cc2nc1NCc1cccnc1`, for which the half-inhibitory concentration (IC50) amounted to 129 nM. Under `CCNc1nc2cc(OC)c(OC)cc2nc1Br` stands 4640 nM; under `CCNc1nc2cc(OC)c(Cl)cc2nc1NCCN1CCN(C)CC1`, 173 nM; under `CCNc1nc2cc(OC)c(OC)cc2nc1NCC`, 50000 nM.

In the case of `C#Cc1cc2nc(NCC)c(NCC)nc2cc1Cl`, the IC50 amounted to 12 nM. The value for `CN1CCN(CCNc2nc3cc(Cl)c(C#CCCO)cc3nc2NCCN2CCN(C)CC2)CC1` was 36 nM; that for `CCNc1nc2cc(Cl)c(C#CC(=O)OC)cc2nc1NCC` was 633 nM.

`CCNc1nc2cc(Cl)c(C#CCO)cc2nc1NCC`: the IC50 came to 1 nM. Turning to `CCNc1nc2cc(OC)c(OC)cc2nc1NCc1ccccn1`, the IC50 is 1280 nM. As for `CCNc1nc2cc(C#CCCO)c(Cl)cc2nc1C#CCCO`, the IC50 came to 665 nM. The value for `CCNc1nc2cc(Cl)c(C#CCCN3C(=O)c4ccccc4C3=O)cc2nc1NCC` was 3160 nM.

Take `CCNc1nc2cc(Cl)c(C#CCOC)cc2nc1NCC`: the half-maximal inhibitory concentration (IC50) stood at 66 nM. In the case of `CCNc1nc2cc(Cl)c(C#CCOCCO)cc2nc1NCC`, the concentration for half-maximal inhibition (IC50) is 103 nM.

Take `CCNc1nc2cc(Cl)c(C#CC(N)=O)cc2nc1NCC`: the concentration for half-maximal inhibition (IC50) was determined as 556 nM. Turning to `CCNc1nc2cc(Cl)c(C#CCOC(=O)CC)cc2nc1NCC`, the IC50 was 257 nM. Under `CCNc1nc2cc(Cl)c(C#CCC(C)O)cc2nc1NCC` (stereo not given) stands 122 nM.

As to `CCNc1nc2cc(Cl)c(NC(C)=O)cc2nc1NCC`, the IC50 amounted to 4140 nM.

In the case of `C#CCOc1cc2nc(NCC)c(NCC)nc2cc1Cl`, the IC50 stood at 320 nM. As for `CCNc1nc2cc(OC)c(Cl)cc2nc1-c1ccc(Cl)cc1`, the IC50 worked out at 1900 nM. As to `CCNc1nc2cc(OC)c(Cl)cc2nc1-c1ccc2c(ccn2C)c1`, the concentration for half-maximal inhibition (IC50) worked out at 220 nM. On to `CCNc1nc2cc(OC)c(Cl)cc2nc1-c1cncc2ccccc12`, for which the IC50 is 1500 nM. Under `COc1cc2nc(NCc3cccnc3)c(-c3ccncc3)nc2cc1OC` stands 7590 nM. With `CCNc1nc2cc(Cl)c(C#CCCC#N)cc2nc1NCC`, the IC50 is 54 nM. For `CCNc1nc2cc(Cl)c(C#N)cc2nc1NCCN1CCN(C)CC1`, the IC50 was found to be 71 nM. For the compound `CCNc1nc2cc(Cl)c(C#CC(C)O)cc2nc1NCC` (stereo not given), the IC50 was 125 nM.

Take `CCNc1nc2cc(OC)c(Cl)cc2nc1NC(C)CCCN(CC)CC` (stereo not given): the IC50 amounted to 515 nM. On to `CCNc1nc2cc(OC)c(OC)cc2nc1NCc1cccnc1`, for which the IC50 came to 710 nM.

A word on the IC50: it is the concentration at which inhibition is half-maximal.
